Measured values from ChEMBL document CHEMBL1201862, “PubChem BioAssay data set” (2004).
Active and inactive are the calls of the source.

How the values were obtained:
[1] = molecular target: T1, Tyrosyl-DNA phosphodiesterase 2 (Homo sapiens, UniProt O95551); assay: human TDP2 enzyme inhibitors, dose response, biochemical, epi absorbance, IC50 (AID 743297)
T1 sequence (O95551 whole entry): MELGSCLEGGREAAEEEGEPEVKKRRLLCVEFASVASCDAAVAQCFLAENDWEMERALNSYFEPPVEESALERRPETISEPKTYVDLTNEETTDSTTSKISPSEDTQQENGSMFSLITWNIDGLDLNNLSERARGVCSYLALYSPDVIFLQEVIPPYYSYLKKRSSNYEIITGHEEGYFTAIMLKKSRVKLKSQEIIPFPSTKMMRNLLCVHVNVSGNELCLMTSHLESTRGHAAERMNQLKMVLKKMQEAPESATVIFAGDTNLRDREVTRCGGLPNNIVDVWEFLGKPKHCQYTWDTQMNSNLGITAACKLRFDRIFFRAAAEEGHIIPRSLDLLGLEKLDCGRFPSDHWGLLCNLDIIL

[2] = molecular target: Genome polyprotein (dengue virus type 2, UniProt P29990); assay: Dengue-2 NS5 methyltransferase inhibitors, primary screen, biochemical, confirmation dose response (AID 588689); assay type: functional
[3] = molecular target: T2, RNA-binding protein pos-1 (Caenorhabditis elegans, UniProt G5EF15); assay: inhibitors of POS-1/mex-3 RNA binding, dose response, biochemical, fluorescence polarization (AID 1964);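 further: purified POS-1 fused to maltose binding protein made in E. coli; potency of compounds blocking POS-1 binding to fluorescent RNA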
T2 sequence (G5EF15 whole entry): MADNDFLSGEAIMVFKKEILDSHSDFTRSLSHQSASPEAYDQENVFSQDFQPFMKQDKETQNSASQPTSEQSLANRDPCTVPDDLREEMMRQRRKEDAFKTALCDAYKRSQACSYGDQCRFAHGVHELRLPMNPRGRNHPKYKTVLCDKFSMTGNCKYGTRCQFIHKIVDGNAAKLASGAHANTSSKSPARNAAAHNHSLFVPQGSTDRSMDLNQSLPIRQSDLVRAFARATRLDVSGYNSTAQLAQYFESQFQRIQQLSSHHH

[4] = molecular target: T3, Endoribonuclease toxin MazF (Escherichia coli K-12, UniProt P0AE70); assay: MazF toxin RNase activators, dose response, biochemical, fluorescence, single-stranded RNA substrate, uHTS hits (AID 588481); assay type: functional
T3 sequence (P0AE70 whole entry): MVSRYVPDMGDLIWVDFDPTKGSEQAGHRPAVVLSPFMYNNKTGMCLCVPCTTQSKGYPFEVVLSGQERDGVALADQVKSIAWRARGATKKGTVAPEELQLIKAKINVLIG

[5] = molecular target: T4, 1-phosphatidylinositol 4,5-bisphosphate phosphodiesterase beta-3 (Homo sapiens, UniProt Q01970); assay: Fluorescence-based biochemical high throughput dose response assay to identify inhibitors of phospholipase C isozymes (PLC-B3).
T4 sequence (Q01970 whole entry): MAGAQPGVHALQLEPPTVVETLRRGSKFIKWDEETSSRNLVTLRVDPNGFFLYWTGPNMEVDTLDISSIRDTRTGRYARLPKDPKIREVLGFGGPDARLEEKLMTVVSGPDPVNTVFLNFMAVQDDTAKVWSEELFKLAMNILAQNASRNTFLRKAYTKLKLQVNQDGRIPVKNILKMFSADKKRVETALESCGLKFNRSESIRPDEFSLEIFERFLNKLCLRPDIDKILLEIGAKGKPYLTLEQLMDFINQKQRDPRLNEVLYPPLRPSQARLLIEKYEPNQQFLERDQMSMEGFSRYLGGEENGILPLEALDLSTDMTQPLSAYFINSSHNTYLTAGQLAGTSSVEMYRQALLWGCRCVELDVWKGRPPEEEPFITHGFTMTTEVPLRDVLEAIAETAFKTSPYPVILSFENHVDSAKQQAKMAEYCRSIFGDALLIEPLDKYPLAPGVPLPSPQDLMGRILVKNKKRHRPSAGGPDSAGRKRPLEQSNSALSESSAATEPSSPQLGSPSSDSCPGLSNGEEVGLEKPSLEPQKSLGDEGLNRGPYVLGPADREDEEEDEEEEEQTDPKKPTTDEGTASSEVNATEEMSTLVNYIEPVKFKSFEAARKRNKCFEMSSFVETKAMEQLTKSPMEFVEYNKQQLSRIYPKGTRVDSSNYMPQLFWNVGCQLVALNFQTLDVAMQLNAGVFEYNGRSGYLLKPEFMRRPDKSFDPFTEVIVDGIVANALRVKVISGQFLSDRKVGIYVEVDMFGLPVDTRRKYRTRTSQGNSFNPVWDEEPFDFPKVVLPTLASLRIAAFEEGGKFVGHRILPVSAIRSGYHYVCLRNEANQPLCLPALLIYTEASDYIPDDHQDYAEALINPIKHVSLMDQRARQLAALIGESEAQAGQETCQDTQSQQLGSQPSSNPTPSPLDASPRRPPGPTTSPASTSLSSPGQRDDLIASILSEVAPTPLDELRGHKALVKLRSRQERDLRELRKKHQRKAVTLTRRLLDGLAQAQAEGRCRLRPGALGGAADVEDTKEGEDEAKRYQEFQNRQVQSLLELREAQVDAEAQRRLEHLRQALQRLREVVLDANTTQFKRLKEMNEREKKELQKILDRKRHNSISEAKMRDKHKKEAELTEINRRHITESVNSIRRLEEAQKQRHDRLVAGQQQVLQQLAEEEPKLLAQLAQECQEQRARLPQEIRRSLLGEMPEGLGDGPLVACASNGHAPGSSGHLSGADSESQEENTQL

Sequence of Genome polyprotein (P29990 2492-3391 limits assumed): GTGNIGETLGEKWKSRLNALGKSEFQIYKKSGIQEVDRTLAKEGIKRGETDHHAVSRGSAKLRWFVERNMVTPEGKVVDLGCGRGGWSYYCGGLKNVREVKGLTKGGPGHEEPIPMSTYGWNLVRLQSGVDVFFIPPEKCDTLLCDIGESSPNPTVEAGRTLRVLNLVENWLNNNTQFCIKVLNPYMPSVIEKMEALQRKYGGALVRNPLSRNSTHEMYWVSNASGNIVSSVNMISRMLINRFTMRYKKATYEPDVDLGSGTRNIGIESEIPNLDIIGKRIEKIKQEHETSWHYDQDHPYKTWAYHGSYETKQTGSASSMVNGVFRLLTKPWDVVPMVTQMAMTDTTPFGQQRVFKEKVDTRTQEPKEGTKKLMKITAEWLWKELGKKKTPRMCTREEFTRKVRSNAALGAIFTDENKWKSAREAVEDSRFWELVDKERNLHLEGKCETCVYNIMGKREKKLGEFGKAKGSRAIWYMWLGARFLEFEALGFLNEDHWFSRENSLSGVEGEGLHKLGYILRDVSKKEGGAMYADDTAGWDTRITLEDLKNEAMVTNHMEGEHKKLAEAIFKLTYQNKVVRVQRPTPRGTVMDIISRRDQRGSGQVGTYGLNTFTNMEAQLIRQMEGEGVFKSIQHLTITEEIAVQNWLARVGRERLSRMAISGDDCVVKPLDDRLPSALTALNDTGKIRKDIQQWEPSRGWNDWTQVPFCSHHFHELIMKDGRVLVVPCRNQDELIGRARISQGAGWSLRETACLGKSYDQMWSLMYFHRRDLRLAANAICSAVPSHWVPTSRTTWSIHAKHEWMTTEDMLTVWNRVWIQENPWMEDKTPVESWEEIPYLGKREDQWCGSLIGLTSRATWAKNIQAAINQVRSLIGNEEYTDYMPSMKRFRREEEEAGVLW

Row | Compound | IC50 [1] | IC50 [2] | EC50 [3] | EC50 [4] | IC50 [5]
1 | COC(=O)c1ccc(-c2ccc(C(c3c(C)[nH][nH]c3=O)c3c(C)[nH][nH]c3=O)o2)cc1 | 74.3 µM (inactive) | > 100 µM (active) | – | – | –
2 | Oc1ccc(/C=N/NC(=S)Nc2cccnc2)c(O)c1O | – | 24.4 µM (active) | 71.4 µM (active) | > 99 µM (inactive) | > 122 µM (inactive)
